The text below walks through data of patent US20210121505A1, “COMPOSITIONS AND METHODS FOR TREATING INFLAMMATORY BOWEL DISEASES” (Seres Therapeutics, Inc., priority 2018, published 2021).

Assay [1] deals with LPS-stimulated peripheral blood mononuclear cells (PBMCs). Description: TNF-α and IL-10 secretion assay, LPS-stimulated PBMCs. Particulars: LPS-activated PBMCs; bile acid 12.5, 25, 50 μM; LPS 1 ng/mL; FIGS. 4A and 4B. Format: cell-based, Human. On the procedure:
To better understand the possible relationship between the increased level of certain secondary bile acids and ulcerative colitis remission, monocytes and PBMCs were activated with LPS in the presence of varying concentrations of different primary and secondary bile acids in their conjugated and unconjugated forms. The amount of TNF-α and IL-10 produced by the activated cells was measured as described below.
Human buffy coat was obtained from Bioreclamation and shipped overnight on ice. Buffy coat was diluted 1:1 with PBS and layered on top of a Ficoll-Paque (GE Healthcare Cat #17-1440-03) in 50 mL falcon tubes. Samples were spun at 500×g for 20 min at room temperature with no brake. PBMCs were aspirated at the […] gradient layer and washed 3 times with PBS. Cells were counted with a hemocytometer to determine cell viability and concentration. Cells were plated onto 96 well plate and incubated at 37 C, 5% CO2 for 1 hour. Following this, bile acids were added at a final concentration of 12.5 μM, 25 μM and 50 μM for one hour prior to addition of LPS (1 ng/mL). After incubation of 16-20 hours, the cell culture media were collected for cytokine analysis. Cytokines were assayed using the Milliplex Human Cytokine kit (Luminex; Millipore), assaying IL-10 and TNF-α. Monocytes were isolated from PBMCs using the Miltenyi Biotec Pan Monocyte Isolation Kit (Cat No: 130-096-537) as per manufacturer's instructions and assayed as described above.

Assay [2] relates to intestinal epithelial cells (HT29). The assay can be described thus: IL-8 secretion assay, TNF-α-stimulated intestinal epithelial cells. Format: cell-based. The settings on record: bile acid 62.5, 125, 250 μM, 1.25 ng/mL TNF-α, relative to no bile acid control, FIG. 6. On the procedure: Since IBD primarily affects the intestinal tissues, whether the anti-inflammatory effects observed in monocytes and PBMCs were also true in intestinal epithelial cells (HT29) was assessed as described below.
HT29 cells, cultured in McCoys Medium supplemented with 10% FBS, GlutaMAX and Pen/Strep were plated at a density of 50 k cells/well in 96-well format and allowed to grow for 5 days until fully confluent. Culture medium was changed every two days. On day 5, cells were pre-treated for 1 hour with 250 μM, 125 μM or 62.5 μM bile acid compounds before exposure to 1.25 ng/mL TNF-α. Cells were incubated overnight (16 h) and culture supernatants were collected for IL-8 protein quantification by ELISA. IL-8 levels of test samples were normalized to inflammatory controls, DMSO pre-treated samples (i.e., no bile acids) that were exposed to the 1.25 ng/mL TNF-α.

Regarding `C[C@H](CCC(=O)NCCS(=O)(=O)O)[C@H]1CC[C@H]2[C@@H]3CC[C@@H]4C[C@H](O)CC[C@]4(C)[C@H]3C[C@H](O)[C@]12C` [tDCA, tauro-deoxycholic acid], the “anti-inflammatory effects (higher IL-10, lower TNF-α)” value in assay [1] is listed as “greatest anti-inflammatory effects”. Also, the IL-8 production entry in assay [2] is on record as “decreased IL-8 production in a dose-dependent manner”.

Turning to `CC(CCC(=O)NCC(=O)O)C1CCC2C3CCC4CC(O)CCC4(C)C3CC(O)C12C` (stereo not drawn) [gDCA, glyco-deoxycholic acid], the “anti-inflammatory effects (higher IL-10, lower TNF-α)” value in assay [1] is “greatest anti-inflammatory effects”. The IL-8 production entry in assay [2] is “decreased IL-8 production in a dose-dependent manner”.

`C[C@H](CCC(=O)NCCS(=O)(=O)O)[C@H]1CC[C@H]2[C@@H]3CC[C@@H]4C[C@H](OS(=O)(=O)O)CC[C@]4(C)[C@H]3CC[C@]12C` [tLCA, tauro-sulfo-lithocholic acid]: the “anti-inflammatory effects (higher IL-10, lower TNF-α)” value in assay [1] is “greatest anti-inflammatory effects”. For the same compound, the IL-8 production entry in assay [2] is reported as “decreased IL-8 production in a dose-dependent manner”.
